Consider 15 compounds from ChEMBL document CHEMBL4373728, “Primaquine derivatives: Modifications of the terminal amino group” (Eur J Med Chem, 2019).

In brackets after ≈: the same amount, converted by molar mass.

Assay [1] has as its system Human coronavirus 229E. The assay can be described thus: Antiviral activity against Human coronavirus 229E. It is filed as functional, organism-based.
Assay [2] deals with Plasmodium falciparum. The assay can be described thus: Antimalarial activity against chloroquine-sensitive Plasmodium falciparum 3D7 by HRP2 assay. It is filed as functional, organism-based.
For assay [3], the system named is Plasmodium falciparum. The assay can be described thus: Antimalarial activity against erythrocytic stage of Plasmodium falciparum by HRP2 assay. It is filed as functional, organism-based.
For assay [4], the system named is Plasmodium falciparum. The assay can be described thus: Antimalarial activity against Plasmodium falciparum Dd2 by HRP2 assay. It is filed as functional, organism-based.
Assay [5] deals with Plasmodium berghei. The assay can be described thus: Antimalarial activity against Plasmodium berghei infected in human Huh7 cells after 1 hr by luciferase reporter gene assay. Format: functional, organism-based. The following applies: Huh-7, 1 h. On the technique in general: A reporter such as luciferase makes a cellular process visible.
Assay [6] concerns Staphylococcus aureus. The assay can be described thus: Antimicrobial activity against Staphylococcus aureus. It is filed as functional.
Assay [7] relates to Pseudomonas aeruginosa. The assay can be described thus: Antimicrobial activity against Pseudomonas aeruginosa. It is filed as functional.
Assay [8] has as its system Escherichia coli. The assay can be described thus: Antimicrobial activity against Escherichia coli. It is filed as functional.
The test system of assay [9] is Escherichia coli. The assay can be described thus: Anti-biofilm activity against Escherichia coli. Format: functional.
The subject of assay [10] is Staphylococcus aureus. The assay can be described thus: Anti-biofilm activity against Staphylococcus aureus 3202 after 24 hrs in aerobic condition by broth microdilution assay. It is filed as functional. Background: Broth dilution looks for growth in wells or tubes with falling amounts of substance.
For assay [11], the system named is Staphylococcus aureus. The assay can be described thus: Anti-biofilm activity against Staphylococcus aureus 630 after 24 hrs in aerobic condition by broth microdilution assay. Format: functional.
The test system of assay [12] is Mammalian orthoreovirus 1. The assay can be described thus: Antiviral activity against Reovirus-1. It is filed as functional, organism-based.
The test system of assay [13] is Punta Toro virus. The assay can be described thus: Antiviral activity against Punta Toro virus. It is filed as functional, organism-based.
Assay [14] relates to Sindbis virus. The assay can be described thus: Antiviral activity against Sindbis virus. It is filed as functional, organism-based.
For assay [15], the system named is Coxsackievirus B4. The assay can be described thus: Antiviral activity against Coxsackievirus B4. Format: functional, organism-based. The following applies: Enterovirus B.

As a reminder, the EC50 is the concentration needed to bring the measured effect to its halfway point. Regarding `COc1cc(NC(C)CCCNC(=O)NNC(=O)/C=C/c2cccc(C(F)(F)F)c2)c2ncccc2c1` (centres undefined), in [1], the EC50 is 7.9 to 15 µM.
The same measure, in the same setting: for `COc1cc(NC(C)CCCNC(=O)NNC(=O)/C=C/c2ccc3c(c2)OCO3)c2ncccc2c1` (centres undefined) the value was 7.9 to 15 µM.
The term IC50 denotes the concentration at which inhibition is half-maximal. Read a low IC50 as higher potency. In the case of `COc1cc(NC(C)CCCNC(=O)/C=C/C(=O)Nc2ccc(C(F)(F)F)cc2)c2ncccc2c1` (centres undefined), the IC50 in assay [2] is 7.74 to 18.4 µM; in assay [3], 7.74 to 18.4 µM; in assay [4], 7.74 to 18.4 µM; in assay [5], 0.11 to 0.39 µM.
In assay [1], `COc1cc(NC(C)CCCNC(=O)NNC(=O)/C(C)=C/c2ccccc2)c2ncccc2c1` (centres undefined) came in with an EC50 of 7.9 to 15 µM.
In general, MIC refers to the lowest concentration that inhibits growth of the organism. In turn, `COc1cc(NC(C)CCCNC(=O)NC(CC(C)C)C(=O)NC(c2ccccc2)c2ccccc2)c2ncccc2c1` (centres undefined) returned an MIC in assay [6] of 6.5 µg/mL (≈ 11.2 µM).
For `COc1cc(NC(C)CCCNC(=O)NC(C(=O)NC(c2ccccc2)c2ccc(Cl)cc2)c2ccccc2)c2ncccc2c1` (centres undefined), the MIC in assay [7] and in [8] was 25 µg/mL (≈ 39.3 µM) throughout. Also, in [9], the MBEC lay in the range of 6.25 to 50 µg/mL.
Turning to `COc1cc(NC(C)CCCNC(=O)/C=C/C(=O)Nc2cccc(F)c2)c2ncccc2c1` (centres undefined), the MBEC in assay [10] and in assay [11] was 6.3 µg/mL in each case. Further, the IC50 in [2] lay within 7.74 to 18.4 µM; in assay [3], 7.74 to 18.4 µM; in assay [4], 7.74 to 18.4 µM; in [5], 0.11 to 0.39 µM.
Turning to `COc1cc(NC(C)CCCNC(=O)/C=C/C(=O)Nc2ccc(F)cc2)c2ncccc2c1` (centres undefined), the MBEC in [10] and in assay [11] was 6.3 µg/mL throughout. The half-inhibitory concentration (IC50) was in the range of 7.74 to 18.4 µM in [2], 7.74 to 18.4 µM in [3], 7.74 to 18.4 µM in assay [4] and 0.11 to 0.39 µM in assay [5].
With `COc1cc(NC(C)CCCNC(=O)NNC(=O)/C=C/c2cc(C(F)(F)F)cc(C(F)(F)F)c2)c2ncccc2c1` (centres undefined), in [1], the EC50 fell in the range of 7.9 to 15 µM.
Consider `COc1cc(NC(C)CCCNC(=O)/C=C/C(=O)Nc2ccc(Cl)cc2)c2ncccc2c1` (centres undefined), for which the IC50 in [2] lay in the range of 7.74 to 18.4 µM; in [3] it was 7.74 to 18.4 µM; in assay [4] it was 7.74 to 18.4 µM; in assay [5], 0.11 to 0.39 µM.
On to `COc1cc(NC(C)CCCNC(=O)NC(C(=O)NC(c2ccccc2)c2ccccc2)c2ccc(Cl)cc2)c2ncccc2c1` (centres undefined), for which the MIC in assay [7] was 25 µg/mL (≈ 39.3 µM); in assay [8] it was 25 µg/mL (≈ 39.3 µM); in assay [6], 6.5 µg/mL (≈ 10.2 µM). Further, the MBEC in assay [9] was 6.25 to 50 µg/mL.
In the case of `COc1cc(NC(C)CCCN)c2ncccc2c1` (centres undefined) [PRIMAQUINE], it took 8.4 µM to reach half-maximal inhibition in [5] (IC50).
For the compound `COc1cc(NC(C)CCCNC(=O)/C=C/C(=O)Nc2cccc(Cl)c2)c2ncccc2c1` (centres undefined), the IC50 in [2] lay within 7.74 to 18.4 µM; in assay [3], 7.74 to 18.4 µM; in [4] it was 7.74 to 18.4 µM; in [5] it was 0.11 to 0.39 µM. For the same compound, the EC50 in assay [12], in [13] and in [14] was 3.1 to 5.5 µM each time.
For `COc1cc(NC(C)CCCNC(=O)NNC(=O)/C=C/c2ccc(C(F)(F)F)cc2)c2ncccc2c1` (centres undefined), in [1], the EC50 was in the range of 7.9 to 15 µM.
For `COc1cc(NC(C)CCCNC(=O)/C=C/C(=O)Nc2cccc(C(F)(F)F)c2)c2ncccc2c1` (centres undefined), the EC50 in [15] was 3.1 µM; in assay [12], 3.1 to 5.5 µM; in assay [13], 3.1 to 5.5 µM; in [14], 3.1 to 5.5 µM. Besides, the IC50 in assay [2] lay within 7.74 to 18.4 µM; in [3], 7.74 to 18.4 µM; in [4], 7.74 to 18.4 µM; in assay [5] it was 0.11 to 0.39 µM.
